# Laboratory results taken from US10844044B2 (Vanderbilt University, priority 2018, dated 2020).
# Like-named read-outs stand apart in the source and are kept apart here.
# Legend:
# WDR5 = WDR5 (Homo sapiens (Human), UniProt P61964); experiment: TR-FRET binding assay (displacement of 10mer-Thr-FAM probe from WDR5); conditions: read-out: Ki for Inhibition of WDR5 by TR-FRET assay
# [1] = tested on: MV4:11 human cancer cell lines; experiment: Anti-proliferative activity, CellTiter-Glo viability assay, 7 day protocol; type: cell-based; conditions: MV4:11 cells, 7 day incubation, read-out: GI50 on cellular proliferation of MV4:11 human cancer cell lines
# Summary of the method: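 MV4:11 cells seeded at 3600 cells/ml and exposed to compounds for 7 days, 0.1% DMSO final. Viability measured by CellTiter-Glo luminescence. GI50 from three biological replicates, each in technical triplicate, given as mean ± S.E.M.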
# [2] = TR-FRET, 10mer-Thr-FAM probe, WDR5-His tag 2 nM, pH 7.0
compound,measurement,setting,value
"Cc1cc([C@@H](NC(=O)c2cc(Cn3cccc(F)c3=N)cc(-c3cccnc3C(F)(F)F)c2)C2CC2)ccc1F [Example 350, (S)—N-(Cyclopropyl(4-fluoro-3-methylphenyl)methyl)-3-((3-fluoro-2-iminopyridin-1(2H)-yl)methyl)-5-(2-(trifluoromethyl)pyridin-3-yl)benzamide]",Ki,WDR5; [2],0.12 nM
same,GI50,"[1]; Homo sapiens, MV4-11, 168 h",140 nM
"Cc1cc([C@@H](NC(=O)c2cc(Cn3cccc(F)c3=N)cc(-c3cn(C)nc3C(F)(F)F)c2)C2CC2)ccc1F [Example 351, (S)—N-(Cyclopropyl(4-fluoro-3-methylphenyl)methyl)-3-((3-fluoro-2-iminopyridin-1(2H)-yl)methyl)-5-(1-methyl-3-(trifluoromethyl)-1H-pyrazol-4-yl)benzamide]",Ki,WDR5; [2],< 0.1 nM
same,GI50,"[1]; Homo sapiens, MV4-11, 168 h",< 100 nM
"Cc1cc([C@@H](NC(=O)c2cc(Cn3ccccc3=N)cc(-c3cn(C)nc3C(F)(F)F)c2)C2CC2)ccc1F [Example 352, (S)—N-(cyclopropyl(4-fluoro-3-methylphenyl)methyl)-3-((2-iminopyridin-1(2H)-yl)methyl)-5-(1-methyl-3-(trifluoromethyl)-1H-pyrazol-4-yl)benzamide]",Ki,WDR5; [2],< 0.1 nM
same,GI50,"[1]; Homo sapiens, MV4-11, 168 h",< 100 nM
"COc1cc(OC)cc(C(C)NC(=O)c2cc(Cn3ccn(C)c3=N)cc(-c3ccc(F)cc3C)n2)c1 (stereo not drawn) [Example 355, N-(1-(3,5-Dimethoxyphenyl)ethyl)-6-(4-fluoro-2-methylphenyl)-4-((2-imino-3-methyl-2,3-dihydro-1H-imidazol-1-yl)methyl)picolinamide]",Ki,WDR5; [2],3.57 nM
same,GI50,"[1]; Homo sapiens, MV4-11, 168 h",1190 nM
"Cc1cc([C@@H](NC(=O)c2cc(CN3CCOC3=N)cc(-c3cn(C)nc3C(F)(F)F)n2)C2CC2)ccc1F [Example 361, (S)—N-(Cyclopropyl(4-fluoro-3-methylphenyl)methyl)-4-((2-iminooxazolidin-3-yl)methyl)-6-(1-methyl-3-(trifluoromethyl)-1H-pyrazol-4-yl)picolinamide]",Ki,WDR5; [2],0.77 nM
same,GI50,"[1]; Homo sapiens, MV4-11, 168 h",940 nM
"Cc1ccnc(C(NC(=O)c2cc(Cn3ccn(C)c3=N)cc(-c3ncccc3C(F)(F)F)c2)C2CC2)c1 (stereo not drawn) [Example 364, N-(Cyclopropyl(4-methylpyridin-2-yl)methyl)-3-((2-imino-3-methyl-2,3-dihydro-1H-imidazol-1-yl)methyl)-5-(3-(trifluoromethyl)pyridin-2-yl)benzamide]",Ki,WDR5; [2],4.3 nM
same,GI50,"[1]; Homo sapiens, MV4-11, 168 h",7800 nM
"COc1cc(CNC(=O)c2cc(Cn3ccn(C)c3=N)nc(-c3ccc(F)cc3C)c2)cc(OC)c1 [Example 365, N-(3,5-Dimethoxybenzyl)-2-(4-fluoro-2-methylphenyl)-6-((2-imino-3-methyl-2,3-dihydro-1H-imidazol-1-yl)methyl)isonicotinamide]",Ki,WDR5; [2],0.55 nM
same,GI50,"[1]; Homo sapiens, MV4-11, 168 h",6000 nM
"COc1ccnc(CNC(=O)c2ccc(F)c(Cn3ccn(C)c3=N)c2)c1 [Example 366, 4-Fluoro-3-((2-imino-3-methyl-2,3-dihydro-1H-imidazol-1-yl)methyl)-N-((4-methoxypyridin-2-yl)methyl)benzamide]",Ki,WDR5; [2],13 nM
same,GI50,"[1]; Homo sapiens, MV4-11, 168 h",30000 nM
"N—((S)-Cyclopropyl(4-fluoro-3-methylphenyl)methyl)-2-ethoxy-5-((3-fluoro-2-iminopyridin-1(2H)-yl)methyl)-3-(1-methyl-3-(trifluoromethyl)-1,3-dihydro-2λ2-pyrazol-4-yl)benzamide [Example 348]",Ki,WDR5,< 0.1 nM
same,GI50,[1],< 100 nM
